The assay deals with BDF1 mice, P388 leukemia ip, median survival T/C. The assay can be described thus: NCI In Vivo Anticancer Drug Screen. Data for tumor model P388 Leukemia (intraperitoneal) in B6D2F1 (BDF1) mice. The conditions noted are these: endpoint: median survival time, higher = longer survival. The gist of the method: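 Steps: implant the tumour, treat one group with compound and another with vehicle, record survival, then divide treated by control.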

Setting [1] is: dose: 50.0 mg/kg/injection, schedule: Q01DX009 (ip), vehicle: saline with Tween-80.
Where [2] appears, read: dose: 100.0 mg/kg/injection, schedule: Q01DX009 (ip), vehicle: saline with Tween-80.
[3] abbreviates: dose: 100.0 mg/kg/injection, schedule: Q04DX003 (ip), vehicle: saline with Tween-80.
[4] abbreviates: dose: 200.0 mg/kg/injection, schedule: Q04DX003 (ip), vehicle: saline with Tween-80.
The mark [5] stands for this setting: dose: 50.0 mg/kg/injection, schedule: Q04DX003 (ip), vehicle: saline.
Where [6] appears, read: dose: 100.0 mg/kg/injection, schedule: Q04DX003 (ip), vehicle: saline.
The mark [7] stands for this setting: dose: 200.0 mg/kg/injection, schedule: Q01DX009 (ip), vehicle: saline with Tween-80.
Setting [8] is: dose: 25.0 mg/kg/injection, schedule: Q01DX009 (ip), vehicle: Klucel (hydroxypropylcellulose) (HPC).
Setting [9] is: dose: 50.0 mg/kg/injection, schedule: Q01DX009 (ip), vehicle: Klucel (hydroxypropylcellulose) (HPC).
[10] abbreviates: dose: 50.0 mg/kg/injection, schedule: Q04DX003 (ip), vehicle: Klucel (hydroxypropylcellulose) (HPC).
Where [11] appears, read: dose: 25.0 mg/kg/injection, schedule: Q01DX009 (ip), vehicle: saline with Tween-80.
The mark [12] stands for this setting: dose: 100.0 mg/kg/injection, schedule: Q01DX001 (ip), vehicle: Klucel (hydroxypropylcellulose) (HPC).
[13] abbreviates: dose: 200.0 mg/kg/injection, schedule: Q01DX001 (ip), vehicle: Klucel (hydroxypropylcellulose) (HPC).
The mark [14] stands for this setting: dose: 400.0 mg/kg/injection, schedule: Q01DX001 (ip), vehicle: Klucel (hydroxypropylcellulose) (HPC).

Toxic doses and inconclusive results are not listed.

Consider `CCOC(=O)/C(C#N)=C/c1c(-c2ccccc2)nn2ccccc12`, for which the T/C reads like this: under setting [1], 96 % of control; under setting [2], 91 % of control.
With `O=C(O)CCC(=O)/C=C1/Nc2ccccc2C1=O`, the T/C is, setting by setting: under setting [3], 110 % of control; under setting [4], 120 % of control.
In the case of `CCc1c2cc(OC)c(OC)cc2cc2c3cc(OC)c(OC)cc3cc[n+]12` (tested in a mixture with another compound), the T/C by setting is: under setting [5], 150 % of control; (dose: 75.0 mg/kg/injection, schedule: Q04DX003 (ip), vehicle: saline) 150 % of control; under setting [6], 166 % of control; (dose: 150.0 mg/kg/injection, schedule: Q04DX003 (ip), vehicle: saline) 158 % of control.
With `O=C(CCl)NC(CO)C(=O)O` (stereo unspecified), the T/C is 91 % of control under setting [5]; 100 % of control under setting [6]; 91 % of control (dose: 200.0 mg/kg/injection, schedule: Q04DX003 (ip), vehicle: saline).
On to `CNc1ccc([N+](=O)[O-])cc1C(=O)OC`, for which the T/C under setting [2] is 104 % of control and the T/C under setting [7] is 96 % of control.
Turning to `O=Cc1nc2ccccc2c2ccccc12`, the T/C (dose: 100.0 mg/kg/injection, schedule: Q01DX001 (ip), vehicle: saline sonified) was 100 % of control; the T/C (dose: 200.0 mg/kg/injection, schedule: Q01DX001 (ip), vehicle: saline sonified) is 100 % of control; the T/C (dose: 400.0 mg/kg/injection, schedule: Q01DX001 (ip), vehicle: saline sonified) is 100 % of control.
In the case of `COc1ccc(Cl)cc1N`, the T/C was 95 % of control under setting [1] and 91 % of control under setting [2].
With `C[P+](c1ccc(F)cc1)(c1ccc(F)cc1)c1ccc(F)cc1`, the T/C is 86 % of control (dose: 12.5 mg/kg/injection, schedule: Q01DX009 (ip), vehicle: Klucel (hydroxypropylcellulose) (HPC)); 104 % of control under setting [8]; 104 % of control (dose: 25.0 mg/kg/injection, schedule: Q04DX003 (ip), vehicle: Klucel (hydroxypropylcellulose) (HPC)); 109 % of control under setting [9]; 90 % of control under setting [10].
Turning to `OC(CC1CCCCN1)c1cc(C(F)(F)F)nc2c(C(F)(F)F)cccc12` (stereo unspecified), the T/C under setting [1] is 111 % of control.
`O=[N+]([O-])c1ccc(Sc2ccccc2)c2nonc12`: the T/C reads like this: (dose: 12.5 mg/kg/injection, schedule: Q01DX009 (ip), vehicle: saline with Tween-80) 88 % of control; under setting [11], 107 % of control; under setting [1], 116 % of control.
`CC(C)COC(=O)c1cc(O)c(O)c(O)c1`: the T/C reads like this: under setting [11], 95 % of control; under setting [1], 91 % of control; under setting [2], 112 % of control; under setting [3], 105 % of control; under setting [7], 103 % of control; under setting [4], 115 % of control. Moreover, the T/C by setting is: (dose: 400.0 mg/kg/injection, schedule: Q01DX009 (ip), vehicle: saline with Tween-80) 103 % of control; (dose: 400.0 mg/kg/injection, schedule: Q04DX003 (ip), vehicle: saline with Tween-80) 115 % of control.
Consider `CCC(=O)OCC(=O)[C@]1(O)Cc2c(O)c3c(c(O)c2[C@@H](OC2CC(N)C(O)C(C)O2)C1)C(=O)c1c(OC)cccc1C3=O` (stereo partly specified), for which the T/C reads like this: (dose: 0.12 mg/kg/injection, schedule: Q01DX009 (ip), vehicle: saline) 170 % of control; (dose: 0.25 mg/kg/injection, schedule: Q01DX009 (ip), vehicle: saline) 201 % of control; (dose: 0.5 mg/kg/injection, schedule: Q01DX009 (ip), vehicle: saline) 219 % of control; (dose: 1.0 mg/kg/injection, schedule: Q01DX009 (ip), vehicle: saline) 186 % of control; (dose: 2.0 mg/kg/injection, schedule: Q01DX009 (ip), vehicle: saline) 241 % of control; (dose: 7.5 micrograms/kg/injection, schedule: Q01DX009 (ip), vehicle: saline) 102 % of control. Moreover, the T/C (dose: 15.0 micrograms/kg/injection, schedule: Q01DX009 (ip), vehicle: saline) is 107 % of control; the T/C (dose: 30.0 micrograms/kg/injection, schedule: Q01DX009 (ip), vehicle: saline) is 118 % of control; the T/C (dose: 60.0 micrograms/kg/injection, schedule: Q01DX009 (ip), vehicle: saline) is 170 % of control.
For `CP(C)c1ccccc1`, the T/C under setting [8] was 92 % of control; the T/C under setting [9] was 96 % of control; the T/C under setting [10] is 100 % of control; the T/C (dose: 100.0 mg/kg/injection, schedule: Q01DX009 (ip), vehicle: Klucel (hydroxypropylcellulose) (HPC)) was 103 % of control; the T/C (dose: 100.0 mg/kg/injection, schedule: Q04DX003 (ip), vehicle: Klucel (hydroxypropylcellulose) (HPC)) is 123 % of control.
`COc1ccc(-n2c(=O)c(N=Nc3ccccc3OC)c(O)n(-c3ccccc3C)c2=S)cc1`: the T/C is, setting by setting: under setting [12], 111 % of control; under setting [13], 100 % of control; under setting [14], 88 % of control.
As for `CCN1CCC2(CC1)COCc1ccccc12`, the T/C by setting is: (dose: 50.0 mg/kg/injection, schedule: Q04DX002 (ip), vehicle: saline with Tween-80) 107 % of control; (dose: 100.0 mg/kg/injection, schedule: Q04DX002 (ip), vehicle: saline with Tween-80) 91 % of control.
Turning to `CCOC(=O)C(C#N)C(C(C)=O)C(=O)OCC` (stereo unspecified), the T/C reads like this: under setting [11], 118 % of control; (dose: 25.0 mg/kg/injection, schedule: Q04DX003 (ip), vehicle: saline sonified) 95 % of control; under setting [1], 90 % of control; (dose: 50.0 mg/kg/injection, schedule: Q04DX003 (ip), vehicle: saline sonified) 100 % of control; (dose: 100.0 mg/kg/injection, schedule: Q04DX003 (ip), vehicle: saline sonified) 104 % of control.
With `Cc1ccc(N=C(c2ccccc2)c2ccc([N+](=O)[O-])cc2)cc1`, the T/C runs as follows: under setting [12], 108 % of control; under setting [13], 100 % of control; under setting [14], 104 % of control.
Turning to `O=CN(O)CC(=O)O.[Cu]`, the T/C runs as follows: (dose: 1.16 mg/kg/injection, schedule: Q04DX003 (ip), vehicle: saline) 95 % of control; (dose: 1.77 mg/kg/injection, schedule: Q04DX003 (ip), vehicle: saline) 95 % of control; (dose: 2.65 mg/kg/injection, schedule: Q04DX003 (ip), vehicle: saline) 90 % of control; (dose: 3.9 mg/kg/injection, schedule: Q04DX003 (ip), vehicle: saline) 90 % of control; (dose: 6.0 mg/kg/injection, schedule: Q04DX003 (ip), vehicle: saline) 100 % of control; (dose: 9.0 mg/kg/injection, schedule: Q04DX003 (ip), vehicle: saline) 113 % of control. Besides, the T/C is 100 % of control (dose: 10.0 mg/kg/injection, schedule: Q01DX001 (ip), vehicle: saline); 104 % of control (dose: 13.0 mg/kg/injection, schedule: Q04DX003 (ip), vehicle: saline); 118 % of control (dose: 20.0 mg/kg/injection, schedule: Q01DX001 (ip), vehicle: saline).

Values taken from PubChem BioAssay AID328 (DTP/NCI, 2004).
